Assays:
CD46 expression [1] = experiment: CD46 expression by RNA-sequencing in paired tumor biopsies before and after therapy; settings: for CD46 expression diff (post minus pre) / Percent Change in CD46 expression / CD46 expression, Post-Treatment Biopsy: paired biopsies; for CD46 expression, Post-Treatment Biopsy: RNA-seq log2-transformed counts;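 on all read-outs here: FFPE human tumor biopsies, exome-capture RNA-seq, reads aligned to GRCh37, counts normalized for GC content, length and depth, summed per gene, log2-transformed, samples paired before versus after therapy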
CD46 expression [2] = experiment: CD46 expression by RNA-sequencing in unpaired pre-treatment and post-treatment tumor biopsies; type: in vivo, human; settings: for CD46 expression Post: post-treatment biopsies
[3] = Breast Cancer, Post minus Pre, unpaired biopsies, log2-transformed counts
[4] = Breast Cancer, post- vs pre-treatment unpaired biopsies
[5] = Breast Cancer, unpaired, RNA-seq log2-transformed normalized counts

Structure (SMILES): COc1cccc2c1C(=O)c1c(O)c3c(c(O)c1C2=O)C[C@@](O)(C(=O)CO)C[C@@H]3O[C@H]1C[C@H](N)[C@H](O)[C@H](C)O1 [doxorubicin]
- CD46 expression diff (post minus pre) (CD46 expression [1]; Breast Cancer): 0.12
- Percent Change in CD46 expression (CD46 expression [1]; Breast Cancer): 1.9%
- CD46 expression, Post-Treatment Biopsy (CD46 expression [1]; Breast Cancer): 6.27
- CD46 expression diff (post minus pre) (CD46 expression [1]; Sarcoma): 0.20
- Percent Change in CD46 expression (CD46 expression [1]; Sarcoma): 4.1%
- CD46 expression, Post-Treatment Biopsy (CD46 expression [1]; Sarcoma): 5.19
- CD46 expression diff (CD46 expression [2]; Bladder Cancer, post minus pre, unpaired biopsies): −0.27
- CD46 expression Percentage change (CD46 expression [2]; Bladder Cancer, post vs pre, unpaired biopsies): −4.3%
- CD46 expression Post (CD46 expression [2]; Bladder Cancer, log2-transformed RNA-seq counts): 5.88
- CD46 expression diff (CD46 expression [2]; [3]): −0.02
- CD46 expression Percentage change (CD46 expression [2]; [4]): −0.3%
- CD46 expression diff (CD46 expression [2]; Sarcoma, Post minus Pre, unpaired biopsies, log2-transformed counts): 0.07
- CD46 expression Percentage change (CD46 expression [2]; Sarcoma, post- vs pre-treatment unpaired biopsies): 1.3%
- CD46 expression Post (CD46 expression [2]; Sarcoma, unpaired, RNA-seq log2-transformed normalized counts): 5.06

Structure (SMILES): CNC(=O)c1ccc(N2C(=S)N(c3ccc(C#N)c(C(F)(F)F)c3)C(=O)C2(C)C)cc1F [enzalutamide]
- CD46 expression diff (post minus pre) (CD46 expression [1]; Prostate Cancer): 0.06
- Percent Change in CD46 expression (CD46 expression [1]; Prostate Cancer): 1.1%
- CD46 expression, Post-Treatment Biopsy (CD46 expression [1]; Prostate Cancer): 6.01
- CD46 expression diff (CD46 expression [2]; Prostate Cancer, Post minus Pre, unpaired biopsies, log2-transformed counts): 0.03
- CD46 expression Percentage change (CD46 expression [2]; Prostate Cancer, post- vs pre-treatment unpaired biopsies): 0.4%
- CD46 expression Post (CD46 expression [2]; Prostate Cancer, unpaired, RNA-seq log2-transformed normalized counts): 6.14

Structure (SMILES): C=C1C[C@@H]2CC[C@@]34C[C@H]5O[C@H]6[C@@H](O3)[C@H]3O[C@H](CC[C@@H]3O[C@H]6[C@H]5O4)CC(=O)C[C@@H]3[C@@H](OC)[C@@H](C[C@H](O)CN)O[C@H]3C[C@H]3O[C@@H](CC[C@@H]1O2)C[C@@H](C)C3=C [eribulin]
- CD46 expression diff (post minus pre) (CD46 expression [1]; Breast Cancer): −0.54
- Percent Change in CD46 expression (CD46 expression [1]; Breast Cancer): −8.4%
- CD46 expression, Post-Treatment Biopsy (CD46 expression [1]; Breast Cancer): 5.92
- CD46 expression diff (CD46 expression [2]; [3]): 0.11
- CD46 expression Percentage change (CD46 expression [2]; [4]): 1.8%
- CD46 expression Post (CD46 expression [2]; [5]): 6.20

Structure (SMILES): O=c1[nH]cc(F)c(=O)[nH]1 [fluorouracil]
- CD46 expression diff (post minus pre) (CD46 expression [1]; Colorectal Cancer): −0.05
- Percent Change in CD46 expression (CD46 expression [1]; Colorectal Cancer): −0.8%
- CD46 expression, Post-Treatment Biopsy (CD46 expression [1]; Colorectal Cancer): 6.27
- CD46 expression diff (post minus pre) (CD46 expression [1]; Esophageal Cancer): −0.31
- Percent Change in CD46 expression (CD46 expression [1]; Esophageal Cancer): −5.2%
- CD46 expression, Post-Treatment Biopsy (CD46 expression [1]; Esophageal Cancer): 5.60
- CD46 expression diff (post minus pre) (CD46 expression [1]; Gastric Cancer): −0.09
- Percent Change in CD46 expression (CD46 expression [1]; Gastric Cancer): −1.5%
- CD46 expression, Post-Treatment Biopsy (CD46 expression [1]; Gastric Cancer): 5.66
- CD46 expression diff (post minus pre) (CD46 expression [1]; Pancreatic Cancer): 0.09
- Percent Change in CD46 expression (CD46 expression [1]; Pancreatic Cancer): 1.5%
- CD46 expression, Post-Treatment Biopsy (CD46 expression [1]; Pancreatic Cancer): 5.92
- subjects whose paired biopsies showed decreased CD46 expression (CD46 expression [1]; esophageal cancer, 10 of 13 subjects, FIG. 4): 77%
- CD46 expression diff (CD46 expression [2]; Biliary Cancer, Post minus Pre, unpaired biopsies, log2-transformed counts): 0.00
- CD46 expression Percentage change (CD46 expression [2]; Biliary Cancer, post- vs pre-treatment unpaired biopsies): 0.0%
- CD46 expression Post (CD46 expression [2]; Biliary Cancer, unpaired, RNA-seq log2-transformed normalized counts): 5.92
- CD46 expression diff (CD46 expression [2]; [3]): 0.06
- CD46 expression Percentage change (CD46 expression [2]; [4]): 1.0%
- CD46 expression Post (CD46 expression [2]; [5]): 6.18
- CD46 expression diff (CD46 expression [2]; Colorectal Cancer, Post minus Pre, unpaired biopsies, log2-transformed counts): 0.06
- CD46 expression Percentage change (CD46 expression [2]; Colorectal Cancer, post- vs pre-treatment unpaired biopsies): 0.9%
- CD46 expression Post (CD46 expression [2]; Colorectal Cancer, unpaired, RNA-seq log2-transformed normalized counts): 6.44
- CD46 expression diff (CD46 expression [2]; Esophageal Cancer, Post minus Pre, unpaired biopsies, log2-transformed counts): −0.06
- CD46 expression Percentage change (CD46 expression [2]; Esophageal Cancer, post- vs pre-treatment unpaired biopsies): −1.0%
- CD46 expression Post (CD46 expression [2]; Esophageal Cancer, unpaired, RNA-seq log2-transformed normalized counts): 5.83
- CD46 expression diff (CD46 expression [2]; Gastric Cancer, post minus pre, unpaired biopsies): −0.14
- CD46 expression Percentage change (CD46 expression [2]; Gastric Cancer, post vs pre, unpaired biopsies): −2.4%
- CD46 expression Post (CD46 expression [2]; Gastric Cancer, log2-transformed RNA-seq counts): 5.65
- CD46 expression diff (CD46 expression [2]; Head and Neck Squamous Cell Carcinoma, Post minus Pre, unpaired biopsies, log2-transformed counts): 0.03
- CD46 expression Percentage change (CD46 expression [2]; Head and Neck Squamous Cell Carcinoma, post- vs pre-treatment unpaired biopsies): 0.6%
- CD46 expression Post (CD46 expression [2]; Head and Neck Squamous Cell Carcinoma, unpaired, RNA-seq log2-transformed normalized counts): 5.63
- CD46 expression diff (CD46 expression [2]; Pancreatic Cancer, post minus pre, unpaired biopsies): −0.15
- CD46 expression Percentage change (CD46 expression [2]; Pancreatic Cancer, post vs pre, unpaired biopsies): −2.5%
- CD46 expression Post (CD46 expression [2]; Pancreatic Cancer, log2-transformed RNA-seq counts): 5.76

Structure (SMILES): C[C@]12CC[C@@H]3c4ccc(O)cc4C[C@@H](CCCCCCCCC[S+]([O-])CCCC(F)(F)C(F)(F)F)[C@H]3[C@@H]1CC[C@@H]2O (stereo partly drawn) [fulvestrant]
- CD46 expression diff (post minus pre) (CD46 expression [1]; Breast Cancer): −0.13
- Percent Change in CD46 expression (CD46 expression [1]; Breast Cancer): −2.1%
- CD46 expression, Post-Treatment Biopsy (CD46 expression [1]; Breast Cancer): 6.44
- CD46 expression diff (CD46 expression [2]; [3]): −0.08
- CD46 expression Percentage change (CD46 expression [2]; [4]): −1.2%
- CD46 expression Post (CD46 expression [2]; [5]): 6.41

— patent US20240058464A1 (Fortis Therapeutics, Inc., priority 2021, published 2024)
